Measured values reported in patent publication US10435361B2, “Kinase inhibitors” (Topivert Pharma Limited, priority 2013, dated 2019).

Assays:
[1] = Hydrolytic stability study (DMSO/water 3:1, 60° C.); format: physicochemical
Protocol: Chemical stability of compounds of the invention was assessed in a mixture of DMSO and water (3:1) at a test compound concentration of 1 mg/mL
Agilent, Waters X-Select C18, 2.5 μm, 4.6×30 mm column, 4 min method, 5-95%
MeCN/water (0.1% formic acid).
Column Oven Temperature 40° C.
Sample Preparation • A 1.0 mg sample of test compound was dissolved in 750 μL of DMSO. Water (250 μL) was added slowly, ensuring no precipitation occurred.
Recording Stability • A 50 μL aliquot of the test solution was removed and analysed in duplicate by 5 μL HPLC injections. The peak area for the test compound was recorded following manual integration of the corresponding UV trace. • The test solution was heated to 60° C., with stirring, and 50 μL aliquots removed for HPLC analysis at 5 and 24 h timepoints.

PBMCs [2] = test: Cell mitosis assay in PBMCs; format: cell-based; settings: Homo sapiens, PBMC, 5 μg/mL
Outline: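 Human PBMCs from healthy donors, density-gradient isolated, stimulated with 2% PHA 48 h, then exposed 20 h to test compounds; demecolcine 0.1 μg/mL added 2 h before harvest. Fixed/permeabilised cells stained for phospho-histone H3 and propidium iodide; mitotic lymphocytes counted by flow cytometry.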

PBMCs [3] = test: IL-2 and IFN gamma release in CD3/CD28 stimulated PBMC cells; format: cell-based; settings: Homo sapiens, assay (c)
Outline: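 Healthy-donor PBMCs, density-gradient isolated, stimulated on plates pre-coated with anti-CD3 (0.3 μg/mL) and anti-CD28 (3 μg/mL) antibodies, with compound, for 3 days under standard culture conditions. IC50 derived from the dose-response curve.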

BDF1 mice = test: TNBS-induced colitis in mice; format: in vivo; settings: conducted over 2 days; vehicle corn oil/transcutol/maisine/cremophor ELP
Protocol: Non-fasted, 10-12 week old, male BDF1 mice are dosed by oral gavage twice daily with either vehicle (5 mL/kg), reference item (Budesonide 2.5 mg/kg) or test compound (1 or 5 mg/kg) one day before (Day −1) stimulation of the inflammatory response by treatment with 2,4,6-trinitrobenzenesulphonic acid (TNBS) (15 mg/mL in 50% ethanol/50% saline). On Day 0 of the study TNBS (200 μL) is administered intra-colonically via a plastic catheter with BID dosing of the vehicle, reference or test compound continuing for 2 or 4 days. During the study, animals are weighed every day and stool observations are made and recorded as a score, based on stool consistency. At the time of sacrifice on Day 2 (or Day 4), the large intestine is removed and the length and weight recorded. Sections of the colon are taken for histopathology scoring to determine disease severity.

PBMCs [4] = test: LPS-induced TNFα/IL-8 release in PBMC cells; format: cell-based; settings: Homo sapiens, assay (b), read-out: IC50 Values for Inhibition of Cytokine Release PBMCs IL-8
Outline: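 Healthy-donor PBMCs isolated by density gradient were pretreated with compound for 2 h, then stimulated with 1 ng/mL LPS (E. coli 0111:B4) for 24 h at 37° C., 5% CO2. IL-8 and TNFα in supernatants measured by sandwich ELISA.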

HT29 cells = test: IL-1β-induced IL-8 release in HT29 cells; format: cell-based; settings: Homo sapiens, HT-29, assay (d), read-out: IC50 Values for Inhibition of Cytokine Release HT29 cells IL-8
Protocol: HT29 cells, a human colon adenocarcinoma cell line, are plated in a 96 well plate (24 hr) and pre-treated with compounds at the desired concentration for 2 hours before addition of 5 ng/mL of IL-1β (Abcam) for 24 hours. Supernatants are harvested for IL-8 quantification by Sandwich ELISA (Duo-set, R&D System). The IC50 is determined from the dose response curve.

[5] = read-out: IC50 Values for Inhibition of Cytokine Release PBMCs IFNγ
[6] = read-out: IC50 Values for Inhibition of Cytokine Release PBMCs IL-2

| decomposition in hydrolytic stability study ([1]; 1 mg/mL in DMSO:water (3:1), 60° C., 5 and 24 h) | % Parent Remaining ([1]; DMSO/water 3:1, 0 min) [%] | % Parent Remaining ([1]; DMSO/water 3:1, 60° C., 300 min) [%] | % Parent Remaining ([1]; DMSO/water 3:1, 60° C., 1440 min) [%] | IC50 (HT29 cells) [nM] | SMILES | inhibition at 5 µg/mL (PBMCs [2]) [%] | IC50 (PBMCs [3]; [5]) [nM] | IC50 (PBMCs [3]; [6]) [nM] | activity in TNBS-induced colitis (histopathology analysis) (BDF1 mice) | IC50 (PBMCs [4]) [nM] |
| --- | --- | --- | --- | --- | --- | --- | --- | --- | --- | --- |
| underwent substantial decomposition | 100 | 82 | 36 | – | C#Cc1cc(Nc2nccc(Oc3ccc(NC(=O)Nc4cc(C(C)C)nn4-c4ccc(C)cc4)c4ccccc34)n2)cc(C(=O)NCCN2CCOCC2)c1 [Reference Compound B, 3-ethynyl-5-((4-((4-(3-(3-isopropyl-1-(p-tolyl)-1H-pyrazol-5-yl)ureido)naphthalen-1-yl)oxy)pyrimidin-2-yl)amino)-N-(2-morpholinoethyl)benzamide, reference compound] | – | – | – | – | – |
| – | – | – | – | 2.1 | COCCOCCOCCOc1cc(Nc2cc(Oc3ccc(NC(=O)Nc4cc(C(C)(C)C)cc(C(N)=O)c4OC)c4ccccc34)ccn2)cc(OC)c1 [Example 34, 5-(tert-Butyl)-2-methoxy-3-(3-(4-((2-((3-methoxy-5-(2-(2-(2-methoxyethoxy)ethoxy)ethoxy)phenyl)amino)pyridin-4-yl)oxy)naphthalen-1-yl)ureido)benzamide] | 40.4 | 7.6 | 62.5 | displayed substantial activity | 3 |
| – | – | – | – | 13.1 | COc1cc(Nc2cc(Oc3ccc(NC(=O)Nc4cc(C(C)(C)C)cc(NS(C)(=O)=O)c4OC)c4ccccc34)ccn2)cc(C(=O)NCCN2CCN(C)CC2)c1 [Example 79, 3-((4-((4-(3-(5-(tert-Butyl)-2-methoxy-3-(methylsulfonamido)phenyl)ureido)naphthalen-1-yl)oxy)pyridin-2-yl)amino)-5-methoxy-N-(2-(4-methylpiperazin-1-yl)ethyl)benzamide] | 54.4 | 5.9 | 284 | displayed substantial activity | 3.4 |
